Here are results for 53 compounds from the supplement of paper PMC12613149.

Data set [1] is described as follows: collision cross section (TIMS, N2 drift gas) of the primary ion; higher = larger gas-phase ion size. How it is done:
(§1)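 Reference mixture of environmental contaminants analysed by RP-LC (BEH C18, 50 °C; ESI+ with water/MeOH plus formic acid and ammonium formate, ESI- with ammonium bicarbonate) coupled to a timsTOF Pro 2 with trapped ion mobility in nitrogen (ramp/accumulation 100 ms). CCS was calibrated with Agilent tune mix (CCS compendium) and averaged over five injections at 0.5-500 ng/mL. The table reports the lowest-CCS (putative monomer) peak; retention times are on the same gradient.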

The nature of data set [2]: reversed-phase LC retention time (C18, 15 min MeOH gradient); higher = more hydrophobic / later elution. How it is done:
as §1

Setting [3] is: ionization mode: ESI-, ion species: [M-H]-.
[4] abbreviates: ionization mode: ESI+, ion species: [M+H]+.

With `O=S(=O)(O)c1ccc2ccc(S(=O)(=O)O)cc2c1` [2,7-Naphthalenedisulfonic acid], in data set [1] (setting [3]), the collision cross section is 159.15 Å². Also, the “reversed-phase LC retention time” value in data set [2] (setting [3]) was found to be 0.97 min.
Take `Nc1ccc2nc3ccc(N)cc3nc2c1` [2,8-Diaminophenazine]: in data set [1] (setting [4]), the collision cross section came to 143.53 Å². For the same compound, in data set [2] (setting [4]), the “reversed-phase LC retention time” value came out at 8.22 min.
For `COCCOCCOCCO` [2-(2-(2-Methoxyethoxy)ethoxy)ethanol], in that order: 135.18 Å² and 10.6 min.
As to `CCCCCCOc1ccc(-c2nc(-c3ccccc3)nc(-c3ccccc3)n2)c(O)c1` [2-(4,6-Diphenyl-1,3,5-triazine-2-yl)-5-(hexyloxy)-phenol], the collision cross section in data set [1] (setting [4]) is 221.42 Å². Further, the “reversed-phase LC retention time” value in data set [2] (setting [4]) turned out to be 21.2 min.
For `O=S(=O)(O)CCNC1CCCCC1` [2-(Cyclohexylamino)-ethansulfonic acid], the collision cross section in data set [1] (setting [4]) stood at 148.57 Å²; in data set [1] (setting [3]) it was 148.72 Å². Further, the “reversed-phase LC retention time” value in data set [2] (setting [4]) amounted to 5.19 min; in data set [2] (setting [3]), 6.1 min.
In turn, `CCN(CC)c1nc(=O)cc(C)[nH]1` [2-(Diethylamino)-6-methylpyrimidin-4-one] registered a collision cross section in data set [1] (setting [4]) of 138.67 Å². The “reversed-phase LC retention time” value in data set [2] (setting [4]) was found to be 7.54 min.
`N#Cc1c(Cl)c(Cl)c(S(=O)(=O)O)c(C(N)=O)c1Cl` [2-Amido-3,5,6-trichloro-4-cyanobenzenesulfonic acid] returned a collision cross section in data set [1] (setting [3]) of 154.35 Å². The “reversed-phase LC retention time” value in data set [2] (setting [3]) came out at 7.02 min.
For the compound `Cn1c(N)nc2ncc(-c3ccccc3)cc21` [2-Amino-1-methyl-6-phenylimidazo[4,5-b]pyridine (PhIP)], the collision cross section in data set [1] (setting [4]) is listed as 152.56 Å²; in data set [1] (setting [3]), 152.05 Å². For the same compound, the “reversed-phase LC retention time” value in data set [2] (setting [4]) is 9.5 min; in data set [2] (setting [3]), 12.1 min.
The matching figures for `Cc1cnc2ccc3c(nc(N)n3C)c2n1` [2-Amino-3,8-dimethylimidazo-[4,5-f]quinoxaline (MeIQx)]: 147.79 Å², 147.68 Å², 7.67 min and 9.09 min.
For `Cn1c(N)nc2c3cccnc3ccc21` [2-Amino-3-methyl-imidazo[4,5-f]quinoline (IQ)], in that order: 138.89 Å², 139.48 Å², 6.04 min and 8.79 min.
Compound `Nc1ccc2c(n1)[nH]c1ccccc12` [2-Amino-9H-pyrido[2,3-b]indole (AalphaC)] registered a collision cross section in data set [1] (setting [3]) of 135.27 Å². Further, the “reversed-phase LC retention time” value in data set [2] (setting [3]) turned out to be 12 min.
In turn, `Nc1nc2ccccc2[nH]1` [2-Aminobenzimidazole] registered a collision cross section in data set [1] (setting [4]) of 124.95 Å². In data set [2] (setting [4]), the “reversed-phase LC retention time” value worked out at 5.92 min.
The matching figures for `Nc1ccccc1-c1ccccc1` [2-Aminobiphenyl]: 141.24 Å² and 12.8 min.
`O=S(=O)(O)c1nc2ccccc2s1` [2-Benzothiazolesulfonic acid]: the collision cross section in data set [1] (setting [4]) is given as 141.34 Å²; in data set [1] (setting [3]) it was 139.34 Å². For the same compound, the “reversed-phase LC retention time” value turned out to be 7.62 min in data set [2] (setting [4]) and 7.26 min in data set [2] (setting [3]).
The matching figures for `CCCCCCCCOc1ccc(C(=O)c2ccccc2)c(O)c1` [2-Hydroxy-4-(octyloxyl)benzophenone]: 193.92 Å², 193.31 Å², 18.9 min and 19.6 min.
The matching figures for `CCNc1nc(O)nc(NC(C)C)n1` [2-Hydroxyatrazine]: 147.52 Å², 146.65 Å², 8.5 min and 10.7 min.
For `O=c1[nH]c2ccccc2s1` [2-Hydroxybenzothiazole], in that order: 126.56 Å², 122.14 Å², 10.5 min and 10.6 min.
The compound `NC(=O)N1c2ccccc2C=Cc2cc(O)ccc21` [2-Hydroxycarbamazepine] registered a collision cross section in data set [1] (setting [4]) of 155.33 Å². Also, the “reversed-phase LC retention time” value in data set [2] (setting [4]) was 10.3 min.
Compound `Oc1ccc2c(c1)[nH]c1ccccc12` [2-Hydroxycarbazole] came in with a collision cross section in data set [1] (setting [3]) of 138.96 Å². In data set [2] (setting [3]), the “reversed-phase LC retention time” value was found to be 12.4 min.
`CC(C)(C)Nc1nc(N)nc(O)n1` [2-Hydroxydesethylterbuthylazine]: the values for the collision cross section in data set [1] (setting [4]) and in data set [1] (setting [3]) were 142.3 Å² and 140.22 Å², respectively. In addition, the “reversed-phase LC retention time” value in data set [2] (setting [4]) is 6.43 min; in data set [2] (setting [3]), 8.55 min.
As to `Cc1cc(=O)[nH]c(C(C)C)n1` [2-Isopropyl-6-methyl-pyrimidin-4-ol], the collision cross section in data set [1] (setting [4]) is 131.58 Å². The “reversed-phase LC retention time” value in data set [2] (setting [4]) stood at 7.51 min.
For `CC(C)c1ccc2sc3ccccc3c(=O)c2c1` [2-Isopropylthioxanthone], in that order: 155.68 Å² and 17.1 min.
As to `CCNS(=O)(=O)C(F)(F)C(F)(F)C(F)(F)C(F)(F)C(F)(F)C(F)(F)C(F)(F)C(F)(F)F` [2-N-Ethylperfluorooctanesulfonamide], the collision cross section in data set [1] (setting [3]) turned out to be 178.3 Å². Moreover, in data set [2] (setting [3]), the “reversed-phase LC retention time” value was 17.6 min.
The matching figures for `O=S(=O)(O)c1ccc2ccccc2c1` [2-Naphthalenesulfonic acid]: 142.13 Å² and 8.49 min.
For `O=S(=O)(O)c1cccc2ccc(O)cc12` [2-Naphthol-8-sulfonic acid], in that order: 144.25 Å² and 7.16 min.
As for `CCCCCCCCn1sccc1=O` [2-Octyl-4-isothiazolin-3-one], the collision cross section in data set [1] (setting [4]) amounted to 157.49 Å². Moreover, the “reversed-phase LC retention time” value in data set [2] (setting [4]) was 14.9 min.
In data set [1] (setting [3]), `Oc1ccccc1-c1ccccc1` [2-Phenylphenol] gave a collision cross section of 134.42 Å². The “reversed-phase LC retention time” value in data set [2] (setting [3]) stood at 13.9 min.
For `O=[PH]1Oc2ccccc2-c2ccccc21` (configuration not stated) [3,4,5,6-Dibenzo-1,2-oxaphosphane-2-oxide], in that order: 144.27 Å² and 8.76 min.
Take `Oc1cc(Cl)c(Cl)c(Cl)c1` [3,4,5-Trichlorophenol]: the collision cross section in data set [1] (setting [3]) was determined as 126.86 Å². For the same compound, the “reversed-phase LC retention time” value in data set [2] (setting [3]) amounted to 14.7 min.
On to `NC(=O)Nc1ccc(Cl)c(Cl)c1` [3,4-Dichlorophenylurea], for which the collision cross section in data set [1] (setting [4]) worked out at 146.21 Å²; in data set [1] (setting [3]), 134.15 Å². The entries for the “reversed-phase LC retention time” value in data set [2] (setting [4]) and in data set [2] (setting [3]) were 12.2 min and 12.4 min, respectively.
The compound `Oc1nc(Cl)c(Cl)cc1Cl` [3,5,6-Trichloro-2-pyridinol] came in with a collision cross section in data set [1] (setting [3]) of 125.88 Å². For the same compound, in data set [2] (setting [3]), the “reversed-phase LC retention time” value was 11.2 min.
Consider `CC(=O)c1cc(C(C)(C)C)c(O)c(C(C)(C)C)c1` [3,5-Di-tert-butyl-4'-hydroxyacetophenone], for which the collision cross section in data set [1] (setting [3]) is given as 165.11 Å². For the same compound, the “reversed-phase LC retention time” value in data set [2] (setting [3]) amounted to 16.3 min.
Consider `N#Cc1cc(Br)c(O)c(Br)c1` [3,5-Dibromo-4-hydroxybenzonitrile], for which the collision cross section in data set [1] (setting [3]) is 129.33 Å². In addition, the “reversed-phase LC retention time” value in data set [2] (setting [3]) was determined as 8.01 min.
Regarding `Cc1ccc(N)cc1Cl` [3-Chloro-4-methylaniline], in data set [1] (setting [4]), the collision cross section is given as 148.73 Å². Moreover, in data set [2] (setting [4]), the “reversed-phase LC retention time” value came to 12.2 min.
In data set [1] (setting [4]), `CN(C)C(=O)NC1CCCCC1` [3-Cyclohexyl-1,1-dimethylurea] yielded a collision cross section of 139.49 Å². Further, the “reversed-phase LC retention time” value in data set [2] (setting [4]) came out at 10.8 min.
On to `Oc1cc(-c2ccc(Cl)cc2)ccc1Cl` [3-Hydroxy-4,4'-dichlorobiphenyl], for which the collision cross section in data set [1] (setting [3]) came to 149.63 Å². For the same compound, in data set [2] (setting [3]), the “reversed-phase LC retention time” value came out at 16.1 min.
On to `CCCCNC(=O)OCC#CI` [3-Iodopropynyl butylcarbamate], for which, in data set [1] (setting [4]), the collision cross section came out at 147.73 Å². Besides, the “reversed-phase LC retention time” value in data set [2] (setting [4]) was 12.8 min.
In data set [1] (setting [3]), `Nc1ccc(/C=C/c2ccc(N)cc2S(=O)(=O)O)c(S(=O)(=O)O)c1` [4,4'-Diaminostilbene-2,2'-disulfonic acid] returned a collision cross section of 178.47 Å². Moreover, in data set [2] (setting [3]), the “reversed-phase LC retention time” value was 0.97 min.
Turning to `Cc1cc(Cc2ccc(N)c(C)c2)ccc1N` [4,4'-Methylene-bis(2-methyl aniline)], in data set [1] (setting [4]), the collision cross section was 171.67 Å². Moreover, the “reversed-phase LC retention time” value in data set [2] (setting [4]) was determined as 8.47 min.
As for `Nc1ccc(Cc2ccc(N)cc2)cc1` [4,4'-Methylenedianiline], in data set [1] (setting [4]), the collision cross section came out at 162.72 Å². Further, the “reversed-phase LC retention time” value in data set [2] (setting [4]) turned out to be 5.68 min.
The matching figures for `Nc1ccc(Oc2ccc(N)cc2)cc1` [4,4'-Oxydianiline]: 159.82 Å² and 4.06 min.
For `Nc1ccc(Sc2ccc(N)cc2)cc1` [4,4'-Thiodianiline], in that order: 164.43 Å² and 9.19 min.
On to `CC(=O)CCc1ccc(O)cc1` [4-(4-Hydroxyphenyl)butan-2-one], for which the values for the collision cross section in data set [1] (setting [4]) and in data set [1] (setting [3]) were 132.84 Å² and 135.07 Å², respectively. Moreover, the “reversed-phase LC retention time” value in data set [2] (setting [4]) worked out at 11.7 min; in data set [2] (setting [3]), 11.9 min.
Compound `Cc1cc(N)c2ccccc2n1` [4-Amino-2-methylquinoline] had a collision cross section in data set [1] (setting [4]) of 128.9 Å². Moreover, the “reversed-phase LC retention time” value in data set [2] (setting [4]) was 6.89 min.
As for `Nc1cnn(-c2ccccc2)c(=O)c1Cl` [4-Amino-5-chloro-1-phenyl-6-pyridazone], the values for the collision cross section in data set [1] (setting [4]) and in data set [1] (setting [3]) were 143.41 Å² and 141.68 Å², respectively. Also, the “reversed-phase LC retention time” value is 9.16 min in data set [2] (setting [4]) and 9.26 min in data set [2] (setting [3]).
As for `CN(C)S(=O)(=O)c1ccc(N)cc1` [4-Amino-N,N-dimethylbenzenesulfonamide], the values for the collision cross section in data set [1] (setting [4]) and in data set [1] (setting [3]) were 138.47 Å² and 137.21 Å², respectively. Moreover, the “reversed-phase LC retention time” value in data set [2] (setting [4]) worked out at 7.89 min; in data set [2] (setting [3]), 7.97 min.
As for `Cc1c(N)c(=O)n(-c2ccccc2)n1C` [4-Aminoantipyrine], the collision cross section in data set [1] (setting [4]) is on record as 142.4 Å². The “reversed-phase LC retention time” value in data set [2] (setting [4]) came to 7.19 min.
As to `C[C@]12CCC(=O)C=C1CC[C@@H]1[C@@H]2[C@@H](O)C[C@]2(C)C(=O)CC[C@@H]12` [4-Androsten-11beta-ol-3,17-dione], the collision cross section in data set [1] (setting [4]) is given as 174.44 Å². In addition, the “reversed-phase LC retention time” value in data set [2] (setting [4]) was determined as 12.8 min.
The matching figures for `C[C@]12CCC(=O)C=C1CC[C@@H]1[C@@H]2CC[C@]2(C)C(=O)CC[C@@H]12` [4-Androstene-3,17-dione]: 172.73 Å² and 13.9 min.
In data set [1] (setting [4]), `COc1cc(Cl)c(OC)cc1N` [4-Chloro-2,5-dimethoxyaniline] gave a collision cross section of 143.89 Å². In data set [2] (setting [4]), the “reversed-phase LC retention time” value is 10.3 min.
For `Nc1ccc(Cl)cc1` [4-Chloroaniline], in that order: 114.68 Å² and 8.59 min.
For `CC(C)(c1ccccc1)c1ccc(O)cc1` [4-Cumylphenol], the collision cross section in data set [1] (setting [3]) was 156.38 Å². For the same compound, the “reversed-phase LC retention time” value in data set [2] (setting [3]) stood at 15.7 min.
As for `Cc1c(C=O)c(=O)n(-c2ccccc2)n1C` [4-Formyl-antipyrine], the collision cross section in data set [1] (setting [4]) was 144.44 Å². Besides, the “reversed-phase LC retention time” value in data set [2] (setting [4]) worked out at 7.67 min.
